Activity calls are given as the source filed them. The calls are words filed in the database; no cut-off is given here.
Experiments:
Format in all cases: functional, organism-based
Cavia porcellus [1] = assay: Antitussive activity against citric acid-induced cough in Cavia porcellus albino (guinea pig) model assessed as increase in cough latency at 5 to 20 mg/kg, ip administered 30 min before aersol of citric acid for 10 min
Cavia porcellus [2] = assay: Antitussive activity against citric acid-induced cough in Cavia porcellus albino (guinea pig) model assessed as decrease in cough frequency per 10 min at 5 to 20 mg/kg, ip administered 30 min before aersol of citric acid for 10 min
Cavia porcellus [3] = assay: Antitussive activity against citric acid-induced cough in Cavia porcellus albino (guinea pig) model assessed as decrease in cough frequency per 10 min at 10 mg/kg, ip administered 30 min before aersol of citric acid for 10 min; set-up: dose 10 mg/kg
Cavia porcellus [4] = assay: Antitussive activity against citric acid-induced cough in Cavia porcellus albino (guinea pig) model assessed as increase in cough latency at 10 mg/kg, ip administered 30 min before aersol of citric acid for 10 min; set-up: dose 10 mg/kg

Structure (SMILES) | Activity (Cavia porcellus [1]) | inhibition (Cavia porcellus [2]) | inhibition (Cavia porcellus [3]) | Activity (Cavia porcellus [4])
O=c1c2cc(Br)cc(Br)c2nc2n1CCCCC2 | Active | Active |  | 
O=c1c2cc(NCc3ccc([N+](=O)[O-])cc3)ccc2nc2n1CCCCC2 | Active | Active |  | 
COc1cc(CNc2ccc3nc4n(c(=O)c3c2)CCCCC4)cc(OC)c1OC | Active | Active |  | 
O=C1c2ccccc2N(C(=O)c2ccccc2)C2CCCCCN12 (centres undefined) | Active | Active |  | 
COc1ccc2c3c1O[C@H]1[C@@H](O)C=C[C@H]4[C@@H](C2)N(C)CC[C@@]341 |  |  | Active | Active
COc1ccc(CNc2ccc3nc4n(c(=O)c3c2)CCCCC4)cc1OC | Active | Active |  | 
CCN1c2ccccc2C(=O)N2CCCCCC21 (centres undefined) | Active | Active |  | 
Nc1ccc2nc3n(c(=O)c2c1)CCCCC3 | Active | Active |  | 
O=c1c2ccccc2nc2n1CCCCC2 | Active | Active |  | 
N#Cc1ccc(CNc2ccc3nc4n(c(=O)c3c2)CCCCC4)cc1 | Active | Active |  | 
O=c1c2cc([N+](=O)[O-])ccc2nc2n1CCCCC2 | Active | Active |  | 
O=C1c2ccccc2N(Cc2ccccc2)C2CCCCCN12 (centres undefined) | Active | Active |  | 
O=C1c2ccccc2NC2CCCCCN12 (centres undefined) | Active | Active |  | 
COc1cc(OC)c2nc3n(c(=O)c2c1)CCCCC3 | Active | Active |  | 
CN1c2ccccc2C(=O)N2CCCCCC21 (centres undefined) | Active | Active |  | 
O=c1c2cc(O)cc(O)c2nc2n1CCCCC2 | Active | Active |  | 
CC(=O)N1c2ccccc2C(=O)N2CCCCCC21 (centres undefined) | Active | Active |  | 
